Assay results reported in article PMC6949113, “Preclinical evaluation of AT-527, a novel guanosine nucleotide prodrug with potent, pan-genotypic activity against hepatitis C virus” (PLoS ONE, 2020).

Experiment: Rat PK study, liver and heart tissue levels
Type: in vivo, Sprague-Dawley rat
Settings: 4 h after oral AT-527 500 mg/kg
Protocol: Rat pharmacokinetic (PK) study. Sprague-Dawley rats were obtained from SLAC Laboratory Animal Co., Ltd. (Shanghai, China), group housed (during the 3-day acclimation period) or individually housed (during the study) and provided ad libitum access to purified (reverse osmosis; RO) water and food except when fasted overnight prior to administration of test article, 4 h after which access to food was restored. Two groups of five rats (single sex/group) were administered a single dose of 500 mg/kg AT-527, suspended in 0.5% CMC-Na and 0.5% Tween 80, via nasogastric gavage followed by a vehicle flush of 3 mL (about 3 times the nasogastric tube volume). This dosage was selected because it was close to the anticipated highest dose to be used in a repeated oral dose toxicity study and would permit accurate assessments of plasma concentrations of metabolites. Blood samples (200 μL) were collected via the saphenous vein using manual restraint at 0.25, 0.5, 1, 2, 4, 6, 8, 10, 12, 24, 48 and 72 h post dose from three animals per sex, and at 0.25, 0.5, 1, 2 and 4 h post dose from two animals per sex. Blood samples were transferred to tubes containing 4 μL 0.5 M dipotassium ethylenediaminetetraacetic acid (K2EDTA) and 10 μL dichlorvos (2 mg/mL) to prevent coagulation and inhibit esterase activity, respectively, mixed and centrifuged (3000 x g, 10 min, 2–8°C) to prepare plasma samples which were quickly frozen on dry ice and stored at ≤ -80°C until LC-MS/MS analysis. […] After the 4-h blood collection, two rats per group were euthanized by CO2 inhalation followed by rapid excision and snap-freezing of the heart and liver in liquid nitrogen. The frozen organs were broken into small pieces and approximately 0.5 g of each tissue was homogenized in 5 volumes (w/v) pre-chilled homogenization solution (30% 268 mM EDTA adjusted to pH 7.2–7.4 with potassium hydroxide in MeOH) in a dry ice-ethanol bath. […]

## C[C@@]1(F)[C@H](O)[C@@H](COP(=O)(O)OP(=O)(O)OP(=O)(O)O)O[C@H]1n1cnc2c(=O)[nH]c(N)nc21 [AT-9010]
  fold higher in liver than in heart: 87 fold
  mean heart concentration: 80 ± 41 pmol/g
  mean liver concentration: 6974 ± 2844 pmol/g
